The nature of assay [1]: Determination of levodopa concentration in rat plasma. The format is in vivo. Conditions: entacapone = 1.00, adult male Wistar rats, COMT inhibitor dosed orally with levodopa+carbidopa. On the procedure:
Levodopa concentration in rat plasma was determined substantially as described in e.g. Kim, T. K. et al. European Journal of Pharmaceutical Sciences, 38 (2009) 525. The studies were performed in adult male Wistar rats. The COMT inhibitor was dosed orally over a range of doses and several sampling time points were chosen between 0 min and 300 min after drug administration (levodopa+carbidopa and COMT inhibitor). Blood samples were collected by cardiac puncture under CO2 anaesthesia into pre-cooled K2EDTA tubes and kept on ice until the separation of plasma by centrifugation. For levodopa analysis, 75 μl of separated plasma was pipetted without delay into pre-cooled polypropylene tubes containing a conserving agent. All the samples were stored at −80° C. nominal until analyzed. Plasma levels of levodopa were determined by LC-MS/MS (or HPLC). Standard pharmacokinetic methods were used to evaluate the concentration—time data by non-compartmental analysis modeling. The analyses were performed using WinNonlin® Professional v. 5.0.1.

The target of assay [2] is T1, recombinant human soluble COMT (S-COMT) (Homo sapiens, UniProt P21964).
T1 sequence (P21964 1-221 isoform P21964-2): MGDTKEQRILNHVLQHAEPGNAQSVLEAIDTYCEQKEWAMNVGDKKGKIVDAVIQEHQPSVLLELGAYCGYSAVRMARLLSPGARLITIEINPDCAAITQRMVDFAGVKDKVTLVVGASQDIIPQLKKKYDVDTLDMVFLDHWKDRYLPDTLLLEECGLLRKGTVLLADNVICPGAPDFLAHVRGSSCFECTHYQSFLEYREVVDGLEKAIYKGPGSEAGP
As to the kind of experiment: COMT inhibiting activity in vitro, Assay 1 (fluorescence plate reader). The format is biochemical. Conditions: Assay 1: 12 nM S-COMT, 60 min preincubation at 37° C., substrate esculetin, Morrison equation. On the procedure:
(§1) The inhibitory potency was determined by measuring recombinant human soluble COMT (S-COMT) activity at various compound concentrations. COMT activity measurements were performed according to the method published in Kurkela, M. et al. Analytical Biochemistry, 331 (2004) 198 with slight modifications according to Assay 1 or Assay 2 described below.
Recombinant human S-COMT (12 nM) was preincubated with the COMT inhibitor and 400 μM S-adenosyl-L-methionine in 100 mM Na2HPO4 buffer, pH 7.4, containing 5 mM MgCl2 for 60 min at 37° C. The reaction was started with the addition of the substrate esculetin for a final concentration of […] and the production of O-methylated esculetin was followed with the FlexStation fluorescence plate reader ([…], USA) using excitation at 355 nm and emission at 460 nm. The inhibitor dissociation constant, Ki, of the studied compounds was calculated using the Morrison equation, which takes the tight binding inhibition into account (Copeland, R. A. Evaluation of Enzyme Inhibitors in Drug Discovery. A Guide for Medicinal Chemists and Pharmacologists, John Wiley & Sons, Inc., Hoboken, N.J., 2005, pp. 185-187):
[formula] wherein v0 and vi are the reaction velocities in the absence and presence, respectively, of the inhibitor, E is the active enzyme concentration, and I is the inhibitor concentration. The data were analyzed with GraphPad Prism version 4.00 software (GraphPad Software, San Diego, Calif., USA). Assay 2

Assay [3] deals with T1, recombinant human soluble COMT (S-COMT). As to the kind of experiment: COMT inhibiting activity in vitro, Assay 2 (HPLC with fluorescence detection). Conditions: Assay 2: 0.8 nM S-COMT, esculetin 0.5 μM, Morrison equation. The format is biochemical. On the procedure: as §1
Recombinant human S-COMT (0.8 nM) was incubated with the COMT inhibitor and 200 μM S-adenosyl-L-methionine in 100 mM Na2HPO4 buffer, pH 7.4, containing 5 mM MgCl2 for 30 min at 37° C. The reaction was started with the addition of esculetin for a final concentration of 0.5 μM and the reaction mixture with total volume of 200 μl was incubated for 30 min at 37° C. The reaction was stopped with 20 μl of 4 M HClO4 and the precipitated protein was removed by Sirocco protein precipitation plate (centrifuged at 4° C. for 10 min at 3000 g). O-Methylated esculetin was detected by Waters HT Alliance HPLC setup with Waters 474 fluorescence detector (Ex […], Em 460 nm, Gain 100). The analytes were separated isocratically using 0.1 M Na2HPO4, 20 mM citric acid, 0.15 mM EDTA, pH 3.2, in 40% methanol as mobile phase and Waters Spherisorb ODS2 (3 μm, 4.6 mm×100 mm) column. O-Methylated esculetin concentrations were calculated based on the standard curve and the Ki values were calculated using the Morrison equation as in Assay 1.

A word on the Ki: it is a dissociation constant, usually derived from enzyme kinetics or from competition with a known ligand.

Consider `N#Cc1cc(O)c(O)c(C#N)c1Br` [Example 1, 2-Bromo-4,5-dihydroxyisophthalonitrile], for which the Relative levodopa concentration in assay [1] is on record as 1.65.
In the case of `N#Cc1cc(O)c(O)c(C#N)c1-c1cccs1` [Example 5, 4,5-Dihydroxy-2-(thiophen-2-yl)isophthalonitrile], the inhibition constant Ki in assay [2] came out at 0.84 nM.
`N#Cc1cc(O)c(O)c(C#N)c1-c1ccco1` [Example 6, 2-(Furan-2-yl)-4,5-dihydroxyisophthalonitrile]: the Relative levodopa concentration in assay [1] was determined as 1.64.
In the case of `N#Cc1cc(O)c(O)c(C#N)c1-c1cccc(C(=O)O)c1` [Example 26, 2′,6′-Dicyano-3′,4′-dihydroxybiphenyl-3-carboxylic acid], the Ki in assay [2] turned out to be 0.12 nM.
Take `CC(C)(C)/C=C/c1c(C#N)cc(O)c(O)c1C#N` [Example 28, (E)-2-(3,3-Dimethylbut-1-enyl)-4,5-dihydroxyisophthalonitrile]: the Relative levodopa concentration in assay [1] was 2.69.
For the molecule `N#Cc1cc(O)c(O)c(C#N)c1-c1ccc(CCC(=O)O)cc1` [Example 32, 3-(2′,6′-Dicyano-3′,4′-dihydroxybiphenyl-4-yl)propanoic acid], the Ki in assay [2] is 2 nM.
Regarding `N#Cc1cc(O)c(O)c(C#N)c1-c1ccc(Cl)c(Cl)c1` [Example 38, 3′,4′-Dichloro-3,4-dihydroxybiphenyl-2,6-dicarbonitrile], the Ki in assay [2] is 9.5 nM.
Turning to `N#Cc1cc(O)c(O)c(C#N)c1Cc1ccccc1` [Example 45, 2-Benzyl-4,5-dihydroxyisophthalonitrile], in assay [2], the Ki was 8.2 nM.
For the molecule `N#Cc1cc(O)c(O)c(C#N)c1Cc1ccc(F)cc1` [Example 55, 2-(4-Fluorobenzyl)-4,5-dihydroxyisophthalonitrile], the Relative levodopa concentration in assay [1] came out at 1.31.
Turning to `N#Cc1cc(O)c(O)c(C#N)c1Cc1ccccc1F` [Example 60, 2-(2-Fluorobenzyl)-4,5-dihydroxyisophthalonitrile], in assay [1], the Relative levodopa concentration worked out at 1.13.
As for `N#Cc1cc(O)c(O)c(C#N)c1C1=CCOCC1` [Example 74, 2-(3,6-Dihydro-2H-pyran-4-yl)-4,5-dihydroxyisophthalonitrile], the inhibition constant (Ki) in assay [2] is 2 nM.
With `N#Cc1cc(O)c(O)c(C#N)c1/C=C/C(=O)O` [Example 76, (E)-3-(2,6-Dicyano-3,4-dihydroxyphenyl)acrylic acid], the Ki in assay [2] came to 3.3 nM.
Take `CC(C)=Cc1c(C#N)cc(O)c(O)c1C#N` [Example 87, 4,5-Dihydroxy-2-(2-methylprop-1-enyl)isophthalonitrile]: in assay [1], the Relative levodopa concentration came out at 1.51.
Take `C=Cc1c(C#N)cc(O)c(O)c1C#N` [Example 89, 4,5-Dihydroxy-2-vinylisophthalonitrile]: in assay [2], the Ki is 2 nM.
In the case of `CCN(CC)C(=O)c1cccc(-c2c(C#N)cc(O)c(O)c2C#N)c1` [Example 100, 2′,6′-Dicyano-N,N-diethyl-3′,4′-dihydroxybiphenyl-3-carboxamide], the Ki in assay [2] was determined as 6.5 nM.
With `N#Cc1cc(O)c(O)c(C#N)c1Cc1ccc(C(=O)O)cc1` [Example 118, 4-(2,6-Dicyano-3,4-dihydroxybenzyl)benzoic acid], in assay [3], the Ki was 0.33 nM.
Regarding `Cc1ccc(/C=C/c2c(C#N)cc(O)c(O)c2C#N)cc1` [Example 121, (E)-4,5-Dihydroxy-2-(4-methylstyryl)isophthalonitrile], the Ki in assay [2] is 18 nM.
The same measure, in the same setting: the same measure for `N#Cc1cc(O)c(O)c(C#N)c1-c1ccc2cc(O)ccc2c1` [Example 122, 4,5-Dihydroxy-2-(6-hydroxynaphthalen-2-yl)isophthalonitrile]: 1.5 nM.
For the molecule `COC(=O)CCc1ccc(Sc2c(C#N)cc(O)c(O)c2C#N)cc1` [Example 144, Methyl 3-(4-(2,6-dicyano-3,4-dihydroxyphenylthio)phenyl)propanoate], the Ki in assay [3] is 0.7 nM.
On to `Cc1ccc(-c2c(C#N)cc(O)c(O)c2C#N)cc1` [Example 152, 3,4-Dihydroxy-4′-methylbiphenyl-2,6-dicarbonitrile], for which, in assay [3], the Ki was determined as 1.6 nM.
On to `N#Cc1cc(O)c(O)c(C#N)c1Cc1ccc(CCC(=O)O)cc1` [Example 153, 3-(4-(2,6-Dicyano-3,4-dihydroxybenzyl)phenyl)propanoic acid], for which, in assay [3], the Ki is 0.4 nM.
For `N#Cc1cc(O)c(O)c(C#N)c1Cc1ccc(C(F)(F)F)cc1` [Example 154, 4,5-Dihydroxy-2-(4-(trifluoromethyl)benzyl)isophthalonitrile], the Ki in assay [3] worked out at 1.3 nM.
`Cc1ccc([S+]([O-])c2c(C#N)cc(O)c(O)c2C#N)cc1` (stereo not shown) [Example 156, 4,5-Dihydroxy-2-(p-tolylsulfinyl)isophthalonitrile]: the Ki in assay [3] was determined as 0.26 nM.
As for `CCc1ccc(Sc2c(C#N)cc(O)c(O)c2C#N)cc1` [Example 158, 2-(4-Ethylphenylthio)-4,5-dihydroxyisophthalonitrile], the Ki in assay [3] amounted to 0.53 nM.
Take `N#Cc1cc(O)c(O)c(C#N)c1Sc1ccc(Cl)cc1` [Example 159, 2-(4-Chlorophenylthio)-4,5-dihydroxyisophthalonitrile]: the Ki in assay [3] worked out at 0.94 nM.
As to `Cc1ccccc1Sc1c(C#N)cc(O)c(O)c1C#N` [Example 160, 4,5-Dihydroxy-2-(o-tolylthio)isophthalonitrile], the Ki in assay [3] was 0.7 nM.
Still for that read-out and setting: the same measure for `COC(=O)c1ccc(Sc2c(C#N)cc(O)c(O)c2C#N)cc1` [Example 161, Methyl 4-(2,6-dicyano-3,4-dihydroxyphenylthio)benzoate]: 0.3 nM.
In the case of `N#Cc1cc(O)c(O)c(C#N)c1Sc1ccc(CC(=O)O)cc1` [Example 164, 2-(4-(2,6-Dicyano-3,4-dihydroxyphenylthio)phenyl)acetic acid], the inhibition constant (Ki) in assay [3] was 0.2 nM.
As to `COc1ccc(Sc2c(C#N)cc(O)c(O)c2C#N)cc1` [Example 167, 4,5-Dihydroxy-2-(4-methoxyphenylthio)isophthalonitrile], the inhibitory constant (Ki) in assay [3] was 0.3 nM.
Take `N#Cc1cc(O)c(O)c(C#N)c1Sc1ccncc1` [Example 171, 4,5-Dihydroxy-2-(pyridin-4-ylthio)isophthalonitrile]: the Ki in assay [3] amounted to 0.9 nM.
In the case of `N#Cc1cc(O)c(O)c(C#N)c1Sc1cccc(C(=O)O)c1` [Example 172, 3-(2,6-Dicyano-3,4-dihydroxyphenylthio)benzoic acid], the inhibition constant (Ki) in assay [3] turned out to be 0.2 nM.
For the molecule `N#Cc1cc(O)c(O)c(C#N)c1Sc1ccc2ccccc2c1` [Example 174, 4,5-Dihydroxy-2-(naphthalen-2-ylthio)isophthalonitrile], the Ki in assay [3] is 0.5 nM.
For the molecule `CC(=O)c1ccc(Oc2c(C#N)cc(O)c(O)c2C#N)cc1` [Example 177, 2-(4-Acetylphenoxy)-4,5-dihydroxyisophthalonitrile], the inhibition constant (Ki) in assay [3] stood at 0.8 nM.
In the case of `Cc1ccc(Oc2c(C#N)cc(O)c(O)c2C#N)c(C)c1` [Example 180, 2-(2,4-Dimethylphenoxy)-4,5-dihydroxyisophthalonitrile], the Ki in assay [3] amounted to 0.5 nM.
For the molecule `N#Cc1cc(O)c(O)c(C#N)c1CCCO` [Example 187, 4,5-Dihydroxy-2-(3-hydroxypropyl)isophthalonitrile], the Ki in assay [2] was 3.2 nM.
Still for that read-out and setting: with `N#Cc1cc(O)c(O)c(C#N)c1N1CCOCC1` [Example 191, 4,5-Dihydroxy-2-morpholinoisophthalonitrile] the figure was 2.9 nM.
For the molecule `Cc1ccc(S(=O)(=O)c2c(C#N)cc(O)c(O)c2C#N)cc1` [Example 209, 4,5-Dihydroxy-2-tosylisophthalonitrile], in assay [3], the Ki was found to be 0.1 nM.

The values above are taken from patent US9458128B2, “Catechol O-methyltransferase activity inhibiting compounds” (Orion Corporation, priority 2012, dated 2016).
